From patent publication US6656968B1, “(Z)-styryl acetoxyphenyl sulfides as cyclooxygenase inhibitors” (Temple University - Of the Commonwealth System of Higher …, priority 1999, dated 2003)
pIC50: −log10 of the molar value.

Experiments:
[1] = system: HT29 cells; assay: Growth of monolayer cells; format: cell-based, human; settings: same concentration (10 μM)
Procedure: (§1) Z-styryl 2-acetoxyphenylsulfide (Example 1) was compared to the COX-2 inhibitor celecoxib in inhibiting the growth of HT29 cells in soft agar. HT29 cells are human colorectal carcinoma cells that overexpress COX-2. HT29 cells grow in soft agar and form tumors in nude mice. The soft agar assay was performed as follows. A layer of bottom agar ([…]) was placed onto 60 mm^2 tissue culture dishes. The tumor cells were trypsinized from normal growth flasks while in exponential growth. The cells were counted by using a hemacytometer and 1.0×10^5 cells were placed into the top agar mixture containing growth medium, […] and various concentrations of drugs. The concentration range was normally between 10 μM to 75 μM. The cells were not refed during the assay system; therefore, the cells were treated with one dose of the agents. The plates were stained 20 days later with a 0.05% (w/v) nitroblue tetrazolium solution (which stains only viable cells) for 48 hours. […] The same concentration of Z-styryl 2-acetoxyphenylsulfide had little affect on the growth of monolayer cells.

[2] = target: T1, human recombinant COX-2 (Homo sapiens, UniProt P35354); assay: Cyclooxygenase enzyme assay (TLC method), COX-2; format: biochemical; settings: human recombinant COX-2, preincubation 90-120 min, [1-14C]arachidonic acid 50 μM
T1 construct: purchased Oxford Biomedical Research Inc
T1 sequence (P35354 18-604): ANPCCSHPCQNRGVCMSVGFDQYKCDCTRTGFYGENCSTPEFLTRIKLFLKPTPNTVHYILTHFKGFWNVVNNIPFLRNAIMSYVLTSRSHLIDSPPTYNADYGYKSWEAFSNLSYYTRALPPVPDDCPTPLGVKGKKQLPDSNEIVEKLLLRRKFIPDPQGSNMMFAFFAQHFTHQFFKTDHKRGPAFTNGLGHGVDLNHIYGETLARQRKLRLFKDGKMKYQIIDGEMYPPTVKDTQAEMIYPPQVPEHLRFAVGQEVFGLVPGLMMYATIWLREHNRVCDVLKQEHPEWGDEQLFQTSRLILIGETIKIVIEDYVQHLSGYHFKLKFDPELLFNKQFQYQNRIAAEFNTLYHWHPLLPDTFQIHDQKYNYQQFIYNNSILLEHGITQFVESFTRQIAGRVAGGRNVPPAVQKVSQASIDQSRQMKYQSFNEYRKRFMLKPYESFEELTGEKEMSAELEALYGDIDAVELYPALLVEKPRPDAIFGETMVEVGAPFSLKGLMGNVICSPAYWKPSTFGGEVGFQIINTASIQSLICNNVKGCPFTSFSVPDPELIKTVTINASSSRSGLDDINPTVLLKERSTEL
Procedure: The compounds of formula I are potent inhibitors of COX-2. […] The resulting radiolabeled prostanoid compounds, i.e., the products of COX-2 reaction with arachidonic acid, were quantified.
(§2) Cyclooxygenase activity of ovine COX-1 (Oxford Biomedical Research Inc.) and human recombinant COX-2 Oxford Biomedical Research Inc.) was assayed by a thin layer chromatography (TLC) method as follows. All inhibitors were dissolved in dimethyl sulfoxide to a stock solution of 5 mM. Human recombinant COX-2 (3 units) or ovine COX-1 (15 units) was incubated with inhibitors at several concentrations in a solution containing 100 mM Tris-HCl, pH7.8, 500 uM phenol and hematin for 90 to 120 minutes at room temperature (24° C.). In controls, equal volumes of DMSO without drug were added to the incubation mixture. After incubation for 90-120 minutes, [1-^14C]arachidonic acid (50 μM, 51 mCi/mmol) (DuPont NEN) was added and incubated at 37° C. for 2 minutes. The reaction was terminated by extraction with 1 ml of ethyl acetate. The ethyl acetate layer was transferred into a fresh tube and evaporated to dryness in a Speedvac vacuum dryer. The contents of the tubes were reconstituted in […] of ethyl acetate and spotted on a TLC plate (J. T. Baker, Phillipsburg, N.J.) and developed in a mobile phase containing chloroform/methanol (95:5) at4° C. Radiolabeled prostanoid compounds (the products of COX enzymatic reaction with radiolabeled arachidonic acid substrate) were quantitated with a radioactivity scanner (Fuji, Phosphorimager). The percentage of total products observed at different inhibitor concentrations was divided by the percentage of the products observed for protein samples pre incubated for the same time with DMSO.

[3] = target: T2, ovine COX-1 (Ovis aries, UniProt P05979); assay: Cyclooxygenase enzyme assay (TLC method), COX-1; format: biochemical; settings: ovine COX-1, preincubation 90-120 min, [1-14C]arachidonic acid 50 μM
T2 construct: purchased Oxford Biomedical Research Inc
T2 sequence (P05979 25-600): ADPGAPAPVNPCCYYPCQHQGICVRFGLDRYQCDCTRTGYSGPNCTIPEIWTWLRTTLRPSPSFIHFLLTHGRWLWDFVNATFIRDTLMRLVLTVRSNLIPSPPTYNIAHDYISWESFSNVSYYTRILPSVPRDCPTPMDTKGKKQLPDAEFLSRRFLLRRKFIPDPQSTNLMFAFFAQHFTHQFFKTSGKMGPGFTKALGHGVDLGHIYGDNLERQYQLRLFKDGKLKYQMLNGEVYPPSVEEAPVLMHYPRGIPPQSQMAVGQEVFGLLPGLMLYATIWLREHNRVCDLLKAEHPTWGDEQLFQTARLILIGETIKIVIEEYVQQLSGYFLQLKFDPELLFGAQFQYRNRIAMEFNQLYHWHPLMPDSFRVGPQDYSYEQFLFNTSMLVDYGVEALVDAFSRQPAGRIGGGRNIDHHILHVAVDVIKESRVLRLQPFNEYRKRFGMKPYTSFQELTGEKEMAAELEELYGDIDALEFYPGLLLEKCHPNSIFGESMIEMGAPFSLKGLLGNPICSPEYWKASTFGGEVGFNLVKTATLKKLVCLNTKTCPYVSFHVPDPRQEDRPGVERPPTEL
Procedure: as §2

[4] = system: DLD-1 cells; assay: Soft agar assay, DLD-1 cells; format: cell-based, human; settings: DLD-1 in soft agar, highest concentration tested, versus untreated control cells (FIG. 1)
Procedure: as §1
The same assay was carried out with DLD-1 cells. Like HT29, DLD-1 cells are human colorectal carcinoma cells that overexpress COX-2. They grow in soft agar and form tumors in nude mice. The results are shown in FIG. 1, the y-axis being the percent of cell colonies remaining in comparison to untreated control cells.

[5] = system: HT29 cells; assay: Soft agar assay, HT29 cells; format: cell-based, human; settings: HT29 in soft agar
Procedure: as §1

Structure (SMILES) | effect on the growth of monolayer cells [1] | pIC50 [2] | pIC50 [3] | inhibition of cell colony growth [4] [%] | inhibition of anchorage independent growth ([5]; lowest concentration tested (10 μM), one dose, stained 20 days later) | concentrations at which plates were devoid of all staining cells ([5]; nitroblue tetrazolium stain (viable cells))
CC(=O)Oc1ccccc1S/C=C\c1ccccc1 [Example 1, Z-styryl 2-acetoxyphenylsulfide] | little affect | 6.82 | 5.30 | 100 | completely inhibited | above 20 μM
CC(=O)Oc1ccccc1S/C=C\c1ccc(F)cc1 [Example 2, Z-4-Fluorostyryl 2-acetoxyphenylsulfide] |  | 6.46 | 5.35 |  |  | 
CC(=O)Oc1ccccc1S/C=C\c1ccccc1Cl [Example 3, Z-2-Chlorostyryl 2-acetoxyphenylsulfide] |  | 6.60 | 5.40 |  |  | 
CC(=O)Oc1ccccc1S/C=C\c1ccc(Cl)cc1 [Example 4, Z-4-Chlorostyryl 2-acetoxyphenylsulfide] |  | 6.70 | 5.40 |  |  | 
CC(=O)Oc1cccc(/C=C\Sc2ccccc2OC(C)=O)c1 [Example 10, Z-3-Acetoxystyryl 2-acetoxyphenylsulfide] |  | 6.15 | 5.70 |  |  | 
